Laboratory results reported in the NIST ThermoML archive (doi:10.1021/je900468u).

Key:
[1] = refractive index (Na D-line) (dimensionless); xn = mol fraction of the nth substance listed; details: 101 kPa, Liquid, Standard Abbe refractometry
[2] = xn = mol fraction of the nth substance listed; details: 101 kPa, Liquid; for speed of sound: Pulse-echo method

CC1CCCCC1 [methylcyclohexane] + CCc1ccccc1
Details	mass density, [2] [kg/m3]	refractive index, [1]	speed of sound, [2] [m/s]
283.15 K, x1 = 0.0494	870.3	1.49728	1376
283.15 K, x1 = 0.0975	865.2	1.49353	1369
283.15 K, x1 = 0.1983	854.6	1.4855	1356
283.15 K, x1 = 0.2981	844.4	1.47786	1345
283.15 K, x1 = 0.4008	834.1	1.47018	1333
283.15 K, x1 = 0.5005	824.2	1.46281	1323
283.15 K, x1 = 0.6001	814.6	1.45566	1313
283.15 K, x1 = 0.7006	805.2	1.44856	1304
283.15 K, x1 = 0.7952	796.4	1.44194	1297
283.15 K, x1 = 0.8949	787.3	1.43542	1289
283.15 K, x1 = 0.9495	782.4	1.43163	1285
283.15 K, x1 = 1	777.9	1.42833	1281
298.15 K, x1 = 0.0494	857.2	1.48923	1312
298.15 K, x1 = 0.0975	852.1	1.48542	1305
298.15 K, x1 = 0.1983	841.5	1.47754	1292
298.15 K, x1 = 0.2981	831.2	1.46988	1280
298.15 K, x1 = 0.4008	820.9	1.46219	1268
298.15 K, x1 = 0.5005	811	1.45484	1258
298.15 K, x1 = 0.6001	801.4	1.44771	1247
298.15 K, x1 = 0.7006	791.9	1.44068	1236
298.15 K, x1 = 0.7952	783.1	1.43414	1230
298.15 K, x1 = 0.8949	774.2	1.42751	1222
298.15 K, x1 = 0.9495	769.3	1.4239	1218
298.15 K, x1 = 1	765.1	1.42062	1215

Cc1ccccc1 [toluene] + C1CCCCC1
x2 = 0
Details	mass density, [2] [kg/m3]	refractive index, [1]	speed of sound, [2] [m/s]
283.15 K	876.1	1.50278	1371
298.15 K	862.2	1.49399	1305
